This data set can be described thus: Hygroscopicity: water content of crystals after storage in dessicator. The data set is classed as physicochemical. The settings on record: after 24 hours inside a dessicator at 60° C. and humidity of 100%. The method, then: For example, Aripiprazole Anhydride Crystals B of the present invention maintain a water content of 0.4% or less after 24 hours inside a dessicator set at a temperature of 60° C. and a humidity of 100%.
Well-known methods of measuring water content can be used as long as they are methods commonly used for measuring the water content of crystals. For example, a method such as the Karl Fischer method can be used.

Each structure is given as a SMILES string.

For the molecule `O=C1CCc2ccc(OCCCCN3CCN(c4cccc(Cl)c4Cl)CC3)cc2N1` [Aripiprazole Anhydride Crystals B, aripiprazole], the water content was at most 0.4%.
